Source: PubChem BioAssay AID2060902 (Molecular Pharmacology Branch, DTP, NCI, 2025)
“And” between values parts separate entries of the source, which are not always exact repeats. Equal values may be shown once.

System: 485368-065-R3-J5-PDC spheroids with HUVEC/MSC, viability
Assay: Anticancer human tumor 485368-065-R3-J5-PDC patient-derived pancreatic carcinoma cell line growth inhibition [RAS]
Details: for viability, T/C: stronger effect = lower value
Excerpt: RAS pathway inhibitors in Combinations in Complex Spheroids
A high-throughput screen of multi-cell type tumor spheroids was designed to identify active combinations of RAS pathway inhibitors and targeted small molecules. Complex spheroids include a stromal component modeled by human endothelial cells (HUVEC) and fibroblasts modeled by human mesenchymal stem cells (MSCs). The concentration ranges selected for each drug and investigational agent were based upon clinically achievable concentrations if the clinical Cmax of the agent was known.
Compounds. The drugs and investigational agents: abemaciclib (NSC768073), cobimetinib (NSC768068), divarasib (GDC6063, NSC841802), docetaxel (NSC628503), GDC-1971 (RLY-1971, NSC841576), gemcitabine (NSC613327), inavolisib (NSC800729), ipatasertib (NSC767898), KB-0742 (NSC834161), MRTX-1133 (NSC836407), osimertinib (NSC779217), RMC-4630 (NSC839698), RMC-6236 (NSC851965), RMC-6291 (NSC852671), Ro-3306 (NSC812927), sapanisertib (NSC764658), SN-38 (NSC673596), staurosporine (NSC755774), SY5609 (NSC837396), and tovorafenib (DAY101, NSC766906), were obtained from the National Cancer Institute (NCI) Developmental Therapeutics Program Chemical Repository. The FDA-approved anticancer drug set is available from the NCI Developmental Therapeutics Program. […] The stock solutions were prepared in dimethyl sulfoxide (DMSO, Sigma-Aldrich, St. Louis, MO, cat. D2650) at 800-fold the tested concentration and stored at -70 degrees C prior to their use. All drugs and investigational agents were tested over a range starting from a high concentration at or near the clinical Cmax and decreasing in half-log increments. If the clinical Cmax for an agent had not been determined, the highest concentration tested was 10 microM.
Cell Culture. All cells were maintained in an incubator at 37 degrees C and 5% CO2 with 95% humidity. The PDC lines were cultured according to standard operating procedures established by the NCI PDMR. All PDCs were thawed and cultured in Matrigel-coated flasks prepared with a working solution of 1X Ham's F-12 nutrient mix, without supplementation (Invitrogen, Waltham, MA, cat. 11765054), 100 U/mL penicillin-streptomycin (Invitrogen, cat. 15140122), and 2.5% Matrigel (Corning Inc., Corning, NY, cat. 354248) for the first three passages. The 362531-283-R-J2-PDC and 782815-120-R-J1-PDC lines were cultured in 6C/Colon 1B media, which includes advanced DMEM/F-12 (Thermo Fisher Scientific, cat. 12634028), 10 mM HEPES (Thermo Fisher Scientific, cat. 15630080), 1X GlutaMAX supplement (Thermo Fisher Scientific, cat. 35050061), 0.1 mg/mL primocin (InvivoGen, San Diego, CA, cat. ant-pm-2), 10% defined fetal bovine serum, heat inactivated (HyClone Laboratories Inc., Logan, UT, cat. SH30070.03HI), 50% L-WRN conditioned media (ATCC, cat. CRL-3276), 1.25 mM N-Acetyl-L-cysteine (Sigma-Aldrich, cat. A9165), 10 mM nicotinamide (Sigma-Aldrich, cat. N0636), 1X B-27 supplement (Thermo Fisher Scientific, cat. 17504044), 1X N-2 supplement (Thermo Fisher Scientific, cat. 17502048), 50 ng/mL human EGF (Thermo Fisher Scientific, cat. PHG0311), and 10 microM Y-27632 dihydrochloride (Tocris Bioscience, cat. 1254). The K12877-001-R-J1-PDC line was cultured in 6I media, which includes all 6C/Colon 1B media plus 10 ng/mL human FGF-10 (PeproTech, cat. 100-26), 1 ng/mL human FGF-2 (PeproTech, cat. 100-18B), 1 µM prostaglandin E2 (Tocris Bioscience, cat. 2296), […] hydrocortisone (Sigma-Aldrich, cat. H4001), and […] bovine insulin (Sigma-Aldrich, cat. I6634). The K86415-001-R-J1-PDC line was cultured in 6D media, which includes all 6C/Colon 1B media components minus the L-WRN conditioned media. The 485176-168-R4-J1-PDC was cultured in PANC media, which includes all 6C/Colon 1B media plus 100 ng/mL human FGF-10 (PeproTech, cat. 100-26), 500 nM SB-431542 (Selleckchem, cat. S1067), and 10 nM gastrin (Tocris Bioscience, cat. 3006). […]

[1] = compound alone, run of 07/15/2024
[2] = compound alone, run of 07/09/2024
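Also: spheroids exposed to agents for seven days before readout.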

C#Cc1c(F)ccc2cc(O)cc(-c3ncc4c(N5CC6CCC(C5)N6)nc(OCC56CCCN5CC(F)C6)nc4c3F)c12 (centres undefined)
viability, T/C (compound 0.0316 µM): 105% [middle of 8 runs] | viability, T/C (compound 0.1 µM): 108% [middle of 8 runs] | viability, T/C (compound 0.316 µM): 100% [middle of 8 runs] | viability, T/C (compound 1 µM): 99.4% [middle of 8 runs] | viability, T/C (compound 3.16 µM): 76.5% [middle of 8 runs] | viability, T/C (compound 10 µM): 42.4% [middle of 8 runs] | IC50 [1]: 7.73 µM [middle of 8 runs]

C=CC(=O)N1CCN(c2nc(OCC3CCCN3C)nc3c(F)c(-c4nc(N)cc(C)c4C(F)(F)F)c(Cl)cc23)C(C)C1 (centres undefined)
viability, T/C (compound 0.00316 µM): 106% [middle of 12 runs] | viability, T/C (compound 0.01 µM, compound 0.0316 µM): 101% | viability, T/C (compound 0.01 µM, compound 0.1 µM): 98.5% | viability, T/C (compound 0.01 µM, compound 0.316 µM): 111% | viability, T/C (compound 0.01 µM, compound 1 µM): 97% | viability, T/C (compound 0.01 µM): 104% [middle of 12 runs] | viability, T/C (compound 0.0316 µM, compound 0.00316 µM): 102% | viability, T/C (compound 0.0316 µM, compound 0.01 µM): 110% | viability, T/C (compound 0.0316 µM, compound 0.1 µM): 107% | viability, T/C (compound 0.0316 µM, compound 0.316 µM): 107% | viability, T/C (compound 0.0316 µM, compound 1 µM): 113% | viability, T/C (compound 0.0316 µM): 106% [middle of 13 runs] | viability, T/C (compound 0.1 µM, compound 0.00316 µM): 116% | viability, T/C (compound 0.1 µM, compound 0.01 µM): 112% | viability, T/C (compound 0.1 µM, compound 0.0316 µM): 99.1% | viability, T/C (compound 0.1 µM, compound 0.316 µM): 107% | viability, T/C (compound 0.1 µM, compound 1 µM): 94% | viability, T/C (compound 0.1 µM): 101% [middle of 13 runs] | viability, T/C (compound 0.316 µM, compound 0.00316 µM): 103% | viability, T/C (compound 0.316 µM, compound 0.01 µM): 104% | viability, T/C (compound 0.316 µM, compound 0.0316 µM): 102% | viability, T/C (compound 0.316 µM, compound 0.1 µM): 108% | viability, T/C (compound 0.316 µM, compound 1 µM): 100% | viability, T/C (compound 0.316 µM): 106% [middle of 13 runs] | viability, T/C (compound 1 µM, compound 0.00316 µM): 112% | viability, T/C (compound 1 µM, compound 0.01 µM): 106% | viability, T/C (compound 1 µM, compound 0.0316 µM): 108% | viability, T/C (compound 1 µM, compound 0.1 µM): 101% | viability, T/C (compound 1 µM, compound 0.316 µM): 96.7% | viability, T/C (compound 1 µM): 101% [middle of 13 runs] | IC50 [1]: > 1000 nM | IC50 (curve of compound): > 1000 nM

C=CC(=O)Nc1cc(Nc2nccc(-c3cn(C)c4ccccc34)n2)c(OC)cc1N(C)CCN(C)C
viability, T/C (compound 0.00316 µM): 108% [middle of 4 runs] | viability, T/C (compound 0.01 µM): 94.1% [middle of 4 runs] | viability, T/C (compound 0.0316 µM): 109% [middle of 4 runs] | viability, T/C (compound 0.1 µM): 106% [middle of 4 runs] | viability, T/C (compound 0.316 µM): 104% [middle of 4 runs] | viability, T/C (compound 1 µM): 97.5% [middle of 4 runs] | IC50 (curve of compound): > 1000 nM

CC(C)n1nc(-c2ccc3oc(N)nc3c2)c2c(N)ncnc21
viability, T/C (compound 0.000316 µM): 106% [middle of 4 runs] | viability, T/C (compound 0.001 µM): 91.4% [middle of 4 runs] | viability, T/C (compound 0.00316 µM): 89% [middle of 4 runs] | viability, T/C (compound 0.01 µM): 65.8% [middle of 4 runs] | viability, T/C (compound 0.0316 µM): 42.8% [middle of 4 runs] | viability, T/C (compound 0.1 µM): 23.6% [middle of 4 runs] | IC50 (curve of compound): 22.7 nM [middle of 4 runs]

CC(Nc1ccc2c(c1)OCCn1cc(N3C(=O)OCC3C(F)F)nc1-2)C(N)=O (centres undefined)
viability, T/C (compound 0.0316 µM): 96.7% [middle of 4 runs] | viability, T/C (compound 0.1 µM): 90% [middle of 4 runs] | viability, T/C (compound 0.316 µM): 99.2% [middle of 4 runs] | viability, T/C (compound 1 µM): 82.1% [middle of 4 runs] | viability, T/C (compound 3.16 µM): 82% [middle of 4 runs] | viability, T/C (compound 10 µM): 58.4% [middle of 4 runs] | IC50 (curve of compound): > 10000 nM

CC1(C)CCC(Nc2ncc(C(F)(F)F)c(-c3c[nH]c4c(P(C)(C)=O)c(C#N)ccc34)n2)CN1 (centres undefined)
viability, T/C (compound 0.03 µM): 41.7% [middle of 4 runs] | viability, T/C (compound 0.0949 µM): 38.6% [middle of 4 runs] | viability, T/C (compound 0.3 µM): 39.7% [middle of 4 runs]

CCN1CCN(Cc2ccc(Nc3ncc(F)c(-c4cc(F)c5nc(C)n(C(C)C)c5c4)n3)nc2)CC1
viability, T/C (compound 0.00316 µM): 99.7% [middle of 4 runs] | viability, T/C (compound 0.01 µM): 91.6% [middle of 4 runs] | viability, T/C (compound 0.0316 µM): 90.2% [middle of 4 runs] | viability, T/C (compound 0.1 µM): 75.6% [middle of 4 runs] | viability, T/C (compound 0.316 µM): 59.6% [middle of 4 runs] | viability, T/C (compound 1 µM): 45.4% [middle of 4 runs]

CCc1c2c(nc3ccc(O)cc13)-c1cc3c(c(=O)n1C2)COC(=O)[C@]3(O)CC
viability, T/C (compound 0.000949 µM): 86.9% [middle of 4 runs] | viability, T/C (compound 0.003 µM): 34.5% [middle of 4 runs] | viability, T/C (compound 0.00949 µM): 14.6% [middle of 4 runs] | viability, T/C (compound 0.03 µM): 7.01% [middle of 4 runs] | viability, T/C (compound 0.0949 µM): 4.37% [middle of 4 runs] | viability, T/C (compound 0.3 µM): 3.18% [middle of 4 runs] | IC50 (curve of compound): 2.19 nM [middle of 4 runs]

CCn1c(-c2cc(N3CCN(C)CC3)cnc2C(C)OC)c2c3cc(ccc31)-c1csc(n1)CC(NC(=O)C1CC1C)C(=O)N1CCCC(N1)C(=O)OCC(C)(C)C2 (centres undefined)
viability, T/C (compound 0.000949 µM): 35.5% [middle of 8 runs] | viability, T/C (compound 0.003 µM): 22.9% [middle of 8 runs] | viability, T/C (compound 0.00949 µM): 17.3% [middle of 8 runs] | viability, T/C (compound 0.03 µM): 12.7% [middle of 8 runs] | viability, T/C (compound 0.0949 µM): 10.3% [middle of 7 runs] | viability, T/C (compound 0.3 µM): 8.88% [middle of 8 runs] | IC50 [2]: < 0.949 nM

CCn1c(-c2cccnc2C(C)OC)c2c3cc(ccc31)N1CCOC(CC(NC(=O)C(C(C)C)N(C)C(=O)C3(F)CCN(C(=O)C#CC(C)(C)N(C)C)CC3)C(=O)N3CCCC(N3)C(=O)OCC(C)(C)C2)C1 (centres undefined)
viability, T/C (compound 0.000949 µM): 102% [middle of 8 runs] | viability, T/C (compound 0.003 µM): 103% [middle of 8 runs] | viability, T/C (compound 0.00949 µM): 102% [middle of 8 runs] | viability, T/C (compound 0.03 µM): 97.4% [middle of 8 runs] | viability, T/C (compound 0.0949 µM): 98% [middle of 8 runs] | viability, T/C (compound 0.3 µM): 96.9% [middle of 8 runs] | IC50 [2]: > 300 nM

Nc1ccn(C2OC(CO)C(O)C2(F)F)c(=O)n1 (centres undefined)
viability, T/C (compound 0.00316 µM): 100% [middle of 4 runs] | viability, T/C (compound 0.01 µM): 29.2% [middle of 4 runs] | viability, T/C (compound 0.0316 µM): 10.9% [middle of 4 runs] | viability, T/C (compound 0.1 µM): 10.5% [middle of 4 runs] | viability, T/C (compound 0.316 µM): 12.1% [middle of 4 runs] | viability, T/C (compound 1 µM): 11.3% [middle of 4 runs] | IC50 (curve of compound): 7.13 nM and 6.64 nM and 6.75 nM

O=C(c1ccc(F)c(F)c1Nc1ccc(I)cc1F)N1CC(O)([C@@H]2CCCCN2)C1
viability, T/C (compound 0.00316 µM): 98.9% [middle of 4 runs] | viability, T/C (compound 0.01 µM): 69.2% [middle of 4 runs] | viability, T/C (compound 0.0316 µM): 54.5% [middle of 4 runs] | viability, T/C (compound 0.1 µM): 36.6% [middle of 4 runs] | viability, T/C (compound 0.316 µM): 26.7% [middle of 4 runs] | viability, T/C (compound 1 µM): 11.3% [middle of 4 runs] | IC50 (curve of compound): 42.7 nM [middle of 4 runs]
